According to patent publication US20260042743A1, “SUBSTITUTED BENZIMIDAZOLES FOR TREATING VIRAL DISEASES” (COUNCIL OF SCIENTIFIC AND INDUSTRIAL RESEARCH, priority 2022, published 2026):

Tested on: SARS-CoV-2
Experiment: cell-based anti-viral assay using Vero E6 cell line, viral RNA by qRT-PCR
Conditions: Vero E6 cells, 48 h; for ΔCt (1 μM) / inhibition at 1 µM: 1 μM compound; for ΔCt (1 μM) / ΔCt (5 μM): increase in Ct vs no-drug control; for ΔCt (5 μM) / inhibition at 5 µM: 5 μM compound; for inhibition at 1 µM / inhibition at 5 µM: Severe acute respiratory syndrome coronavirus 2, Vero C1008, calculated from ΔCt; for inhibition at 1 µM: read-out: % SARS-CoV-2 Inactivation (1 μM); for inhibition at 5 µM: read-out: % SARS-CoV-2 Inactivation (5 μM)

SMILES: FC(F)(F)c1cccc(Nc2nc3ccc(C(F)(F)F)cc3[nH]2)c1 [Example 32, 6-(trifluoromethyl)-N-(3-(trifluoromethyl)phenyl)-1H-benzo[d]imidazol-2-amine]
- ΔCt (1 μM): 0.2
- ΔCt (5 μM): 9.3
- inhibition at 1 µM: < 3%
- inhibition at 5 µM: > 99%

SMILES: FC(F)(F)c1cc(C(F)(F)F)c2nc(Nc3ccccc3C(F)(F)F)[nH]c2c1 [Example 28, 4,6-bis(trifluoromethyl)-N-(2-(trifluoromethyl)phenyl)-1H-benzo[d]imidazol-2-amine]
- ΔCt (1 μM): −2
- ΔCt (5 μM): 2
- inhibition at 1 µM: < 3%
- inhibition at 5 µM: < 3%

SMILES: C[C@@H](Nc1nc2c(C(F)(F)F)cc(C(F)(F)F)cc2[nH]1)c1cccc2ccccc12 [Example 19, (R)—N-(1-(naphthalen-1-yl)ethyl)-4,6-bis(trifluoromethyl)-1H-benzo[d]imidazol-2-amine]
- ΔCt (1 μM): 1.9
- ΔCt (5 μM): 1.9
- inhibition at 1 µM: < 3%
- inhibition at 5 µM: < 3%

SMILES: CN(c1cc(C(F)(F)F)cc(C(F)(F)F)c1)c1nc2c(C(F)(F)F)cc(C(F)(F)F)cc2[nH]1 [Example 41, N-(3,5-bis(trifluoromethyl)phenyl)-N-methyl-4,6-bis(trifluoromethyl)-1H-benzo[d]imidazol-2-amine]
- ΔCt (1 μM): 3.8
- ΔCt (5 μM): 13.4
- inhibition at 1 µM: > 90%
- inhibition at 5 µM: > 99.9%

SMILES: FC(F)(F)c1cc(C(F)(F)F)c2nc(Nc3ccc4ccccc4c3)[nH]c2c1 [Example 17, N-(naphthalen-2-yl)-5,7-bis(trifluoromethyl)-1H-benzo[d]imidazol-2-amine]
- ΔCt (1 μM): 3
- ΔCt (5 μM): 1.5
- inhibition at 1 µM: 90%
- inhibition at 5 µM: < 3%

SMILES: FC(F)(F)Oc1ccc2nc(Nc3cccc(C(F)(F)F)c3)[nH]c2c1 [Example 30, 6-(trifluoromethoxy)-N-(3-(trifluoromethyl)phenyl)-1H-benzo[d]imidazol-2-amine]
- ΔCt (1 μM): 1.1
- ΔCt (5 μM): 11.1
- inhibition at 1 µM: < 3%
- inhibition at 5 µM: 99.9%

SMILES: FC(F)(F)c1cc(C(F)(F)F)c2nc(Nc3ccccc3)[nH]c2c1 [Example 3, N-phenyl-4,6-bis(trifluoromethyl)-1H-benzo[d]imidazol-2-amine]
- ΔCt (1 μM): 1.8
- ΔCt (5 μM): 3.3
- inhibition at 1 µM: < 3%
- inhibition at 5 µM: 90%

SMILES: Fc1ccccc1Nc1nc2c(C(F)(F)F)cc(C(F)(F)F)cc2[nH]1 [Example 23, N-(2-fluorophenyl)-4,6-bis(trifluoromethyl)-1H-benzo[d]imidazol-2-amine]
- ΔCt (1 μM): −0.3
- ΔCt (5 μM): 5.2
- inhibition at 1 µM: < 3%
- inhibition at 5 µM: > 95%

SMILES: FC(F)(F)Oc1cccc(Nc2nc3c(C(F)(F)F)cc(C(F)(F)F)cc3[nH]2)c1 [Example 22, N-(3-(trifluoromethoxy)phenyl)-4,6-bis(trifluoromethyl)-1H-benzo[d]imidazol-2-amine]
- ΔCt (1 μM): 3.3
- ΔCt (5 μM): 7.4
- inhibition at 1 µM: 90%
- inhibition at 5 µM: 99%

SMILES: Fc1cc2nc(Nc3cc(C(F)(F)F)cc(C(F)(F)F)c3)[nH]c2cc1F [Example 11, N-(3,5-bis(trifluoromethyl)phenyl)-5,6-difluoro-1H-benzo[d]imidazol-2-amine]
- ΔCt (1 μM): 5.8
- ΔCt (5 μM): 10.3
- inhibition at 1 µM: > 95%
- inhibition at 5 µM: 99.9%

SMILES: Fc1ccc(Nc2nc3c(C(F)(F)F)cc(C(F)(F)F)cc3[nH]2)cc1 [Example 25, N-(4-fluorophenyl)-4,6-bis(trifluoromethyl)-1H-benzo[d]imidazol-2-amine]
- ΔCt (1 μM): 2
- ΔCt (5 μM): 3.6
- inhibition at 1 µM: < 3%
- inhibition at 5 µM: 90%

SMILES: FC(F)(F)c1cccc(Nc2nc3c(C(F)(F)F)cccc3[nH]2)c1 [Example 35, 4-(trifluoromethyl)-N-(3-(trifluoromethyl)phenyl)-1H-benzo[d]imidazol-2-amine]
- ΔCt (1 μM): 1.7
- ΔCt (5 μM): 7.5
- inhibition at 1 µM: < 3%
- inhibition at 5 µM: 99%

SMILES: CN(c1cccc(C(F)(F)F)c1)c1nc2c(C(F)(F)F)cc(C(F)(F)F)cc2[nH]1 [Example 40, N-methyl-4,6-bis(trifluoromethyl)-N-(3-(trifluoromethyl)phenyl)-1H-benzo[d]imidazol-2-amine]
- ΔCt (1 μM): 5
- ΔCt (5 μM): 12.2
- inhibition at 1 µM: > 95%
- inhibition at 5 µM: > 99.9%

SMILES: FC(F)(F)Oc1ccc2nc(Nc3cc(C(F)(F)F)cc(C(F)(F)F)c3)[nH]c2c1 [Example 29, N-(3,5-bis(trifluoromethyl)phenyl)-6-(trifluoromethoxy)-1H-benzo[d]imidazol-2-amine]
- ΔCt (1 μM): 4.7
- ΔCt (5 μM): 11.5
- inhibition at 1 µM: > 95%
- inhibition at 5 µM: 99.9%

SMILES: COc1ccc(Nc2nc3cc(F)c(F)cc3[nH]2)cc1Br [Example 9, N-(3-bromo-4-methoxyphenyl)-5,6-difluoro-1H-benzo[d]imidazol-2-amine]
- ΔCt (1 μM): −1.1
- ΔCt (5 μM): 1
- inhibition at 1 µM: < 3%
- inhibition at 5 µM: < 3%

SMILES: Cn1c(Nc2cc(C(F)(F)F)cc(C(F)(F)F)c2)nc2cc(F)c(F)cc21 [Example 39, N-(3,5-bis(trifluoromethyl)phenyl)-5,6-difluoro-1-methyl-1H-benzo[d]imidazol-2-amine]
- ΔCt (1 μM): 0.5
- ΔCt (5 μM): 1
- inhibition at 1 µM: < 3%
- inhibition at 5 µM: < 3%

SMILES: Fc1cccc(Nc2nc3c(C(F)(F)F)cc(C(F)(F)F)cc3[nH]2)c1 [Example 24, N-(3-fluorophenyl)-4,6-bis(trifluoromethyl)-1H-benzo[d]imidazol-2-amine]
- ΔCt (1 μM): 0.7
- ΔCt (5 μM): 4.3
- inhibition at 1 µM: < 3%
- inhibition at 5 µM: > 90%

SMILES: FC(F)(F)c1ccc(Nc2nc3ccc(C(F)(F)F)cc3[nH]2)cc1 [Example 33, 6-(trifluoromethyl)-N-(4-(trifluoromethyl)phenyl)-1H-benzo[d]imidazol-2-amine]
- ΔCt (1 μM): 1.4
- ΔCt (5 μM): 14.3
- inhibition at 1 µM: < 3%
- inhibition at 5 µM: 100%

SMILES: FC(F)(F)c1ccc(Nc2nc3c(C(F)(F)F)cc(C(F)(F)F)cc3[nH]2)cc1 [Example 27, 4,6-bis(trifluoromethyl)-N-(4-(trifluoromethyl)phenyl)-1H-benzo[d]imidazol-2-amine]
- ΔCt (1 μM): 1.2
- ΔCt (5 μM): 8
- inhibition at 1 µM: < 3%
- inhibition at 5 µM: > 99%

SMILES: CC1(Nc2nc3c(C(F)(F)F)cc(C(F)(F)F)cc3[nH]2)CCC1 [Example 21, N-(1-methylcyclobutyl)-4,6-bis(trifluoromethyl)-1H-benzo[d]imidazol-2-amine]
- ΔCt (1 μM): 3.6
- ΔCt (5 μM): 9.3
- inhibition at 1 µM: > 90%
- inhibition at 5 µM: > 99%

SMILES: FC(F)(F)c1cc(Nc2nc3c(C(F)(F)F)cc(C(F)(F)F)cc3[nH]2)cc(C(F)(F)F)c1 [Example 1, N-(3,5-bis(trifluoromethyl)phenyl)-4,6-bis(trifluoromethyl)-1H-benzo[d]imidazol-2-amine]
- ΔCt (1 μM): 5.7
- ΔCt (5 μM): 12
- inhibition at 1 µM: > 95%
- inhibition at 5 µM: > 99.9%

SMILES: Fc1cc2nc(Nc3cccc(C(F)(F)F)c3)[nH]c2cc1F [Example 10, 5,6-difluoro-N-(3-(trifluoromethyl)phenyl)-1H-benzo[d]imidazol-2-amine]
- ΔCt (1 μM): 2.4
- ΔCt (5 μM): 2.4
- inhibition at 1 µM: < 3%
- inhibition at 5 µM: < 3%

SMILES: FC(F)(F)c1cc(C(F)(F)F)c2nc(NCc3ccccc3)[nH]c2c1 [Example 6, N-benzyl-4,6-bis(trifluoromethyl)-1H-benzo[d]imidazol-2-amine]
- ΔCt (1 μM): 2
- ΔCt (5 μM): 1.6
- inhibition at 1 µM: < 3%
- inhibition at 5 µM: < 3%

SMILES: COc1ccc2nc(Nc3cc(C(F)(F)F)cc(C(F)(F)F)c3)[nH]c2c1 [Example 37, N-(3,5-bis(trifluoromethyl)phenyl)-6-methoxy-1H-benzo[d]imidazol-2-amine]
- ΔCt (1 μM): 5
- ΔCt (5 μM): 4.3
- inhibition at 1 µM: > 95%
- inhibition at 5 µM: > 90%

SMILES: CN(c1ccc(C(F)(F)F)cc1)c1nc2cccc(C(F)(F)F)c2[nH]1 [Example 43, N-methyl-7-(trifluoromethyl)-N-(4-(trifluoromethyl)phenyl)-1H-benzo[d]imidazol-2-amine]
- ΔCt (1 μM): 1.8
- ΔCt (5 μM): 3.6
- inhibition at 1 µM: < 3%
- inhibition at 5 µM: > 90%

SMILES: Fc1cc2nc(Nc3ccc(C(F)(F)F)cc3)[nH]c2cc1F [Example 12, 5,6-difluoro-N-(4-(trifluoromethyl)phenyl)-1H-benzo[d]imidazol-2-amine]
- ΔCt (1 μM): 2.4
- ΔCt (5 μM): 3.5
- inhibition at 1 µM: < 3%
- inhibition at 5 µM: 90%

SMILES: FC(F)(F)c1ccc(Nc2nc3c(C(F)(F)F)cccc3[nH]2)cc1 [Example 36, 4-(trifluoromethyl)-N-(4-(trifluoromethyl)phenyl)-1H-benzo[d]imidazol-2-amine]
- ΔCt (1 μM): 12
- ΔCt (5 μM): 12
- inhibition at 1 µM: > 99.9%
- inhibition at 5 µM: > 99.9%

SMILES: FC(F)(F)c1cc(C(F)(F)F)c2nc(N3CCCCC3)[nH]c2c1 [Example 16, 2-(piperidin-1-yl)-4,6-bis(trifluoromethyl)-1H-benzo[d]imidazole]
- ΔCt (1 μM): 0.8
- ΔCt (5 μM): 1
- inhibition at 1 µM: < 3%
- inhibition at 5 µM: < 3%

SMILES: CN(c1cccc(C(F)(F)F)c1)c1nc2cccc(C(F)(F)F)c2[nH]1 [Example 42, N-methyl-7-(trifluoromethyl)-N-(3-(trifluoromethyl)phenyl)-1H-benzo[d]imidazol-2-amine]
- ΔCt (1 μM): 1
- ΔCt (5 μM): 2.1
- inhibition at 1 µM: < 3%
- inhibition at 5 µM: < 3%

SMILES: Fc1cc(F)cc(Nc2nc3c(C(F)(F)F)cc(C(F)(F)F)cc3[nH]2)c1 [Example 26, N-(3,5-difluorophenyl)-4,6-bis(trifluoromethyl)-1H-benzo[d]imidazol-2-amine]
- ΔCt (1 μM): 3.4
- ΔCt (5 μM): 9.4
- inhibition at 1 µM: 90%
- inhibition at 5 µM: > 99%
